Patent publication US12180146B2, “Antihypertensive polyol compound and derivative thereof” (TAO PHARMACEUTICAL (SUZHOU) CO., LTD, priority 2020, dated 2024)

System: spontaneously hypertensive rats (SHR)
Assay: Antihypertensive activity test: blood pressure and heart rate of spontaneously hypertensive rats (SHR)
Assay type: in vivo, rat
Conditions: 200 mg/kg; for SHR blood pressure (SBP), time after administration 1 h / SHR blood pressure (SBP), time after administration 2 h / SHR blood pressure (SBP), time after administration 3 h / SHR blood pressure (SBP), time after administration 4 h / SHR blood pressure (SBP), time after administration 5 h / SHR blood pressure (SBP), time after administration 6 h: n = 8
Protocol: Tested Drugs: Compounds of the Invention. The dosage of all compound was uniformly set to 200 mg/kg.
In the test, changes in the blood pressure before and after the administration were detected, and compared with the basic value, a reduction of SBP ≥20 mmHg after administration was judged as effective antihypertensive effects; and at the same time, changes in the heart rate before and after the administration were detected.
Heart rate was expressed as mean±standard deviation (x±s). The changes of heart rate before and after the administration were compared by using Two-sample equal variance paired t test, and P<0.05 was regarded as the standard of statistically significant difference.

SMILES | SBP Difference before and after administration, 1 h [mmHg] | SHR blood pressure (SBP), time after administration 1 h [mmHg] | SBP Difference before and after administration, 2 h [mmHg] | SHR blood pressure (SBP), time after administration 2 h [mmHg] | SBP Difference before and after administration, 3 h [mmHg] | SHR blood pressure (SBP), time after administration 3 h [mmHg] | SBP Difference before and after administration, 4 h [mmHg] | SHR blood pressure (SBP), time after administration 4 h [mmHg] | SBP Difference before and after administration, 5 h [mmHg] | SHR blood pressure (SBP), time after administration 5 h [mmHg] | SBP Difference before and after administration, 6 h [mmHg] | SHR blood pressure (SBP), time after administration 6 h [mmHg]
CCc1cccc(C(O)COC(=O)[C@@H](C)N)c1 (stereo partly drawn) [Compound 22] | 11 | 187 ± 6.39 | 14 | 184 ± 4.69 | 26 | 171 ± 12.14 | 25 | 173 ± 13.7 | 24 | 174 ± 15.9 | 20 | 178 ± 8.78
CCc1cccc(C(CO)OC(=O)CN)c1 (stereo not drawn) [Compound 23] | 10 | 186 ± 6.39 | 9 | 187 ± 4.66 | 15 | 181 ± 9.15 | 13 | 183 ± 13.7 | 18 | 178 ± 15.9 | 18 | 178 ± 8.78
COc1cc(C(O)CO)ccc1O (stereo not drawn) [Compound 25] | 8 | 191 ± 6.64 | 10 | 189 ± 7.77 | 11 | 186 ± 8.18 | 15 | 184 ± 4.56 | 12 | 187 ± 14.2 | 11 | 188 ± 5.55
